# From patent publication US10221163B2 (priority 2015, dated 2019)
# Like-named read-outs stand apart in the source and are kept apart here.
# Tests used:
# IMP-1 = IMP-1 (Serratia marcescens, UniProt P52699); assay: biochemical; format: biochemical; conditions: fluorescence assay, CCF2-FA substrate, 2 pM enzyme, 2 hours at 25° C.; read-out: IMP-1 IC50
# How it was run: (§1)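 Inhibitor was mixed with the metallo-β-lactamase and CCF2-FA. After 2 hours at 25° C, fluorescence of the coumarin–fluorescein cephalosporin substrate was read. IC50 was calculated with a 4-parameter fit.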
# NDM-1 = NDM-1 (Klebsiella pneumoniae, UniProt C7C422); assay: biochemical; format: biochemical; conditions: fluorescence assay, CCF2-FA substrate, 1 pM enzyme, 2 hours at 25° C.; read-out: NDM-1 IC50
# How it was run: as §1
# VIM-1 = VIM-1 (Pseudomonas aeruginosa (strain ATCC 15692 / DSM 22644 / CIP 104116 / JCM 14847 / LMG 12228 / 1C / PRS 101 / PAO1), UniProt A0A0F7KYQ8); assay: biochemical; conditions: CCF2-FA substrate, 30 pM enzyme, 2 hours at 25° C.
# How it was run: as §1
# [1] = tested on: Escherichia coli expressing NDM-1 (CLB30005, CLB30016); format: cell-based; conditions: with imipenem 1 μg/ml; for Escherichia coli MITC95: NDM-1 strain, 95% inhibition of growth; for Escherichia coli expressing NDM-1 (CLB30016) MITC95: 95% inhibition of bacterial growth
# How it was run: (§2)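 Colonies grown overnight on blood agar at 35° C were suspended in saline, diluted 1:100 into 1.1×CAMHB and dispensed. Imipenem was added to 1 μg/ml, then test compound. After 22 hours to 24 hours at 35° C, absorbance was recorded.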
# [2] = tested on: Klebsiella pneumoniae expressing VIM-1 (IHMA599644); format: cell-based; conditions: for Klebsiella pneumoniae MITC95: VIM-1 strain IHMA599644, with imipenem 1 μg/ml, 95% inhibition of growth; for Klebsiella pneumoniae expressing VIM-1 (IHMA599644) MITC95: with imipenem 1 μg/ml, 95% inhibition of bacterial growth
# How it was run: as §2
# [3] = tested on: Serratia marcescens expressing IMP-1 (CL5741); format: cell-based; conditions: for Serratia marcescens MITC95: IMP-1 strain CL5741, with imipenem 1 μg/ml, 95% inhibition of growth; for Serratia marcescens expressing IMP-1 (CL5741) MITC95: with imipenem 1 μg/ml, 95% inhibition of bacterial growth
# How it was run: as §2
# [4] = tested on: Pseudomonas aeruginosa efflux+ (MB9798), IMP-1; format: cell-based; parameters: Concentration of metallo-β-lactamase inhibitor which restores susceptibility of efflux + (MB9798) strain to imipenem: unit not given here; conditions: C, D serine β-lactamase inhibitor closely related to relebactam; for Concentration of metallo-β-lactamase inhibitor which restores susceptibility of efflux + (MB9798) strain to imipenem: imipenem at 2 μg/mL, in the presence of a class A; for P. aeruginosa expressing IMP-1, efflux + (MB9798) MITC95: concentration restoring susceptibility to imipenem at 2 μg/mL in the presence of a class A
# How it was run: (§3)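 Steps: add fixed imipenem and/or ceftazidime (usually CLSI breakpoint) and fixed AmpC-directed class A/C inhibitor to microbroth MIC wells; titrate MBL inhibitor; record concentration regaining susceptibility for each PAO1-derived strain; divide efflux+ by efflux− value.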
# [5] = tested on: Pseudomonas aeruginosa efflux− (MB9799), IMP-1; format: cell-based; conditions: C, D serine β-lactamase inhibitor closely related to relebactam; for Concentration of metallo-β-lactamase inhibitor which restores susceptibility of efflux − (MB9799) strain to imipenem: imipenem at 2 μg/mL, in the presence of a class A; for P. aeruginosa expressing IMP-1, efflux − (MB9799) MITC95: concentration restoring susceptibility to imipenem at 2 μg/mL in the presence of a class A
# How it was run: as §3
# [6] = tested on: Pseudomonas aeruginosa MB9798 vs MB9799
# How it was run: as §3
# [7] = fold difference between efflux+ (MB9798) and efflux− (MB9799) strains, imipenem at 2 μg/mL
# [8] = fluorescence assay, read-out: VIM-1 IC50
# [9] = ratio MITC95 PA_9798/MITC95 PA_9799
# IMP-1, sequence (P52699 whole entry, looked up, species assumed): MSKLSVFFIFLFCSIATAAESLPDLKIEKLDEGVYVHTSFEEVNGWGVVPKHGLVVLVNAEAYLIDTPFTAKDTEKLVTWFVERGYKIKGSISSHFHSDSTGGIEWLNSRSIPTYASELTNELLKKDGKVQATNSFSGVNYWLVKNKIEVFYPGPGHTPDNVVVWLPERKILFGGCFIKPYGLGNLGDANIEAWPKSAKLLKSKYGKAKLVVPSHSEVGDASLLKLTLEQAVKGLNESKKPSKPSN
# NDM-1, sequence (C7C422 whole entry, looked up, species assumed): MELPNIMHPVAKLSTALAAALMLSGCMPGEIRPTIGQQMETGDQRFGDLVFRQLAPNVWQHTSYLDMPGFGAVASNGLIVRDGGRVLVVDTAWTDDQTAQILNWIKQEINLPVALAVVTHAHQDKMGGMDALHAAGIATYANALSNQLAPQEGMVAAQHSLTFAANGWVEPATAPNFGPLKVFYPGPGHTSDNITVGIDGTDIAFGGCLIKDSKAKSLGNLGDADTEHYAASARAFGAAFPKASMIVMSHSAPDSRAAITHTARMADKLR
SMILES,IC50 (IMP-1),IC50 (NDM-1),"IC50 (VIM-1; VIM-1 IC50, fluorescence assay)",Escherichia coli MITC95 [1],Klebsiella pneumoniae MITC95 [2],Serratia marcescens MITC95 [3],Concentration of metallo-β-lactamase inhibitor which restores susceptibility of efflux + (MB9798) strain to imipenem [4],Concentration of metallo-β-lactamase inhibitor which restores susceptibility of efflux − (MB9799) strain to imipenem [5],"Efflux ratio [6, 7]",IC50 (VIM-1; [8]),Escherichia coli expressing NDM-1 (CLB30016) MITC95 [1],Klebsiella pneumoniae expressing VIM-1 (IHMA599644) MITC95 [2],Serratia marcescens expressing IMP-1 (CL5741) MITC95 [3],"P. aeruginosa expressing IMP-1, efflux + (MB9798) MITC95 [4]","P. aeruginosa expressing IMP-1, efflux − (MB9799) MITC95 [5]","Efflux ratio [6, 9]"
"NCCNC(=O)c1cc(Cl)cc(-c2ccc(S(=O)(=O)NCCN)c(S(N)(=O)=O)c2-c2nn[nH]n2)c1N [Example 447, 2-Amino-N-(2-aminoethyl)-4′-(N-(2-aminoethyl)sulfamoyl)-5-chloro-3′-sulfamoyl-2′-(2H-tetrazol-5-yl)-[1,1′-biphenyl]-3-carboxamide]",1.6 nM,0.646 nM,0.18 nM,0.7813 µM,1.563 µM,0.7813 µM,1.563,0.7813,2.00,–,–,–,–,–,–,–
"Cc1ccc(-c2ccc(S(N)(=O)=O)c(S(N)(=O)=O)c2-c2nn[nH]n2)c2nc(N)sc12 [Example 6, 4-(2-amino-7-methylbenzo[d]thiazol-4-yl)-3-(2H-tetrazol-5-yl)benzene-1,2-disulfonamide]",0.0648 nM,0.0269 nM,–,–,–,–,–,–,–,0.0915 nM,6.25 µM,6.25 µM,1.563 µM,1.563 µM,1.563 µM,1.00
"NCCNS(=O)(=O)c1ccc(-c2cccc(SC[C@H](O)CN)c2)c(-c2nn[nH]n2)c1S(N)(=O)=O [Example 356, (R)-3′-((3-amino-2-hydroxypropyl)thio)-N4-(2-aminoethyl)-2-(2H-tetrazol-5-yl)-[1,1′-biphenyl]-3,4-disulfonamide]",1.41 nM,1.82 nM,0.244 nM,0.7813 µM,0.7813 µM,0.7813 µM,–,–,–,–,–,–,–,0.7813 µM,0.3906 µM,2.00
"C[C@H](CN)NS(=O)(=O)c1ccc(-c2cccc3[nH]c(CN)nc23)c(-c2nn[nH]n2)c1S(N)(=O)=O [Example 383, (R)-4-(2-(aminomethyl)-1H-benzo[d]imidazol-4-yl)-N1-(1-aminopropan-2-yl)-3-(2H-tetrazol-5-yl)benzene-1,2-disulfonamide]",0.536 nM,0.0568 nM,–,0.7813 µM,1.563 µM,1.563 µM,–,–,–,0.102 nM,–,–,–,0.7813 µM,0.7813 µM,1.00
"Nc1nc2c(-c3ccc(S(=O)(=O)N[C@H]4CCCNC4)c(S(N)(=O)=O)c3-c3nnn[nH]3)cccc2[nH]1 [Example 179, (S)-4-(2-amino-1H-benzo[d]imidazol-4-yl)-N^1-(piperidin-3-yl)-3-(1H-tetrazol-5-yl)benzene-1,2-disulfonamide]",3 nM,0.219 nM,–,–,–,–,–,–,–,0.904 nM,1.563 µM,3.125 µM,3.125 µM,3.125 µM,1.563 µM,2.00
"CN(CCN)S(=O)(=O)c1ccc(-c2cccc3[nH]c(N)nc23)c(-c2nn[nH]n2)c1S(N)(=O)=O [Example 449, 4-(2-amino-1H-benzo[d]imidazol-4-yl)-N^1-(2-aminoethyl)-N^1-methyl-3-(2H-tetrazol-5-yl)benzene-1,2-disulfonamide]",11.8 nM,7.73 nM,27.8 nM,0.7813 µM,12.5 µM,1.563 µM,6.25,1.563,4.00,–,–,–,–,–,–,–
"CN(C)CC(F)(F)CNS(=O)(=O)c1ccc(-c2cccc3sc(N)nc23)c(-c2nnn[nH]2)c1S(N)(=O)=O [Example 16, 4-(2-amino-1,3-benzothiazol-4-yl)-N1-[3-(dimethylamino)-2,2-difluoropropyl]-3-(1H-tetrazol-5-yl)benzene-1,2-disulfonamide]",0.442 nM,0.0921 nM,–,–,–,–,–,–,–,0.461 nM,25 µM,25 µM,12.5 µM,100 µM,6.25 µM,16.00
"COCCNS(=O)(=O)c1ccc(-c2cccc3sc(N)nc23)c(-c2nnn[nH]2)c1S(N)(=O)=O [Example 24, 4-(2-amino-1,3-benzothiazol-4-yl)-N^1-(2-methoxyethyl)-3-(1H-tetrazol-5-yl)benzene-1,2-disulfonamide]",0.235 nM,0.0732 nM,–,–,–,–,–,–,–,0.205 nM,25 µM,12.5 µM,3.125 µM,12.5 µM,3.125 µM,4.00
NC[C@@H](CO)NS(=O)(=O)c1ccc(-c2ccc(N)nc2)c(-c2nn[nH]n2)c1S(N)(=O)=O [Example 409],0.17 nM,0.112 nM,–,0.1953 µM,3.125 µM,1.563 µM,1.563,1.563,1.00,0.184 nM,–,–,–,–,–,–
"Nc1nc2c(-c3ccc(S(=O)(=O)NCC4(N)CCOCC4)c(S(N)(=O)=O)c3-c3nnn[nH]3)cccc2s1.O=CO [Example 115, 4-((4-(2-aminobenzo[d]thiazol-4-yl)-2-sulfamoyl-3-(1H-tetrazol-5-yl)phenylsulfonamido)methyl)tetrahydro-2H-pyran-4-aminium formate]",0.324 nM,0.0602 nM,–,–,–,–,–,–,–,0.388 nM,3.125 µM,6.25 µM,3.125 µM,3.125 µM,3.125 µM,1.00
"NCCNS(=O)(=O)c1ccc(-c2cccc(-c3c[nH]c(N)n3)c2)c(-c2nn[nH]n2)c1S(N)(=O)=O [Example 353, 3′-(2-amino-1H-imidazol-4-yl)-N4-(2-aminoethyl)-2-(2H-tetrazol-5-yl)-[1,1′-biphenyl]-3,4-disulfonamide]",1.15 nM,0.259 nM,–,0.3906 µM,1.563 µM,0.7813 µM,–,–,–,0.571 nM,–,–,–,1.563 µM,0.7813 µM,2.00
"NC[C@H](O)CNS(=O)(=O)c1ccc(-c2ccncc2N)c(-c2nn[nH]n2)c1S(N)(=O)=O [Example 222, (S)—N1-(3-amino-2-hydroxypropyl)-4-(3-aminopyridin-4-yl)-3-(2H-tetrazol-5-yl)benzene-1,2-disulfonamide]",1.19 nM,0.311 nM,–,–,–,–,–,–,–,0.445 nM,0.3906 µM,3.125 µM,1.563 µM,1.563 µM,1.563 µM,1.00
